Key:
[1] = from COC(=O)c1c(CCCI)c2ccc(Cl)c(-c3c(CN(Cc4cc(CCc5cc(O)c6ccccc6c5)n(C)n4)C(=O)OC(C)(C)C)nn4c3CCC4)c2n1C; ether bond; 21-membered ring; K2CO3; MeCN; 3.61 mM; 60.0 °C
[2] = tested on: NCI-H929 (ATCC CRL-9068) cells; assay: NCI-H929 cell proliferation assay (CellTiter-Glo); type: cell-based; details: 72 h of compound treatment
Protocol: Cell proliferation was measured using the CellTiter-Glo® Luminescent Cell Viability Assay. The assay involved the addition of a single reagent (CellTiter-Glo® Reagent) directly to cells cultured in serum-supplemented medium.
Each compound evaluated was prepared as a DMSO stock solution (10 mM). Compounds were tested in duplicate on each plate, with a 10-point serial dilution curve (1:3 dilution). Compound treatment ([…]) was added from the compound dilution plate to the cell plate. The highest compound concentration was 10 μM (final), with a 0.1% final DMSO concentration. Plates were then incubated at 37° C., 5% CO2. After 72 h of compound treatment, cell plates were equilibrated at rt for approximately 30 mins. An equi-volume amount of CellTiter-Glo® Reagent (40 μL) was added to each well. Plates were mixed for 2 mins on an orbital shaker to induce cell lysis and then incubated at rt for 10 mins to stabilize the luminescent signal. Luminescence was recorded using an Envision plate reader according to CellTiter-Glo protocol. IC50 of each compound was calculated using GraphPad Prism by nonlinear regression analysis.

[3] = biological target: Mcl-1 (Homo sapiens, UniProt Q07820); assay: Mcl-1 Homogeneous Time Resolved Fluorescence (HTRF) binding assay; details: HTRF; 4 nM Mcl-1, 100 nM FAM-Bak peptide; 10-dose, singlicate; read-out: Mcl-1 IC50
Mcl-1, sequence (Q07820 whole entry): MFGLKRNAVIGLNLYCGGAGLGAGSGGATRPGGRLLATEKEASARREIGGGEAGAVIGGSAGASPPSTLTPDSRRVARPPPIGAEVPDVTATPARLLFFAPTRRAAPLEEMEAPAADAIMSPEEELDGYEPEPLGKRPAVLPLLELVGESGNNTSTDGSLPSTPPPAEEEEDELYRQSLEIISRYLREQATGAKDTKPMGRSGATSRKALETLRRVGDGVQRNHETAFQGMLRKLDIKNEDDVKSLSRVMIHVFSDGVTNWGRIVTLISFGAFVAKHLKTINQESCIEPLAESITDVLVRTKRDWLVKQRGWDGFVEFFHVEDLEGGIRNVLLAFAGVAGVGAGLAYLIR

| Compound | ring closure, isolated yield [1] [%] | IC50 ([2]; Homo sapiens, NCI-H929, 72 h) [nM] | IC50 [3] [nM] | IC50 [2] [nM] |
| --- | --- | --- | --- | --- |
| COC(=O)c1c2c3ccc(Cl)c(c3n1C)-c1c(nn3c1CCC3)CN(C(=O)OC(C)(C)C)Cc1cc(n(C)n1)CCc1cc(c3ccccc3c1)OCCC2 | 40 |  |  |  |
| Cc1c2c(nn1C)CSCc1cc(n(C)n1)CSc1cc(c3ccccc3c1)OCCCc1c(C(=O)O)n(C)c3c-2c(F)ccc13 (single isomer, unassigned) [Example 14A, (Z)-1^6-Fluoro-1^1,2^1,2^5,6^1-tetramethyl-1^1H,2^1H,6^1H-10-oxa-4,8-dithia-1(7,3)-indola-2(4,3),6(3,5)-dipyrazola-9(3,1)-naphthalenacyclotridecaphane-1^2-carboxylic acid] |  | < 100 | < 10 |  |
| CCn1nc2cc1CSc1cc(c3ccccc3c1)OCCCc1c(C(=O)O)n(C)c3c(c(F)ccc13)-c1c(C)nn(C)c1CSC2 (single isomer, unassigned) [Example 15A, (Z)-6^1-Ethyl-1^6-fluoro-1^1,2^1,2^3-trimethyl-1^1H,2^1H,6^1H-10-oxa-4,8-dithia-1(7,3)-indola-2(4,5),6(3,5)-dipyrazola-9(3,1)-naphthalenacyclotridecaphane-1^2-carboxylic acid] |  | > 1000 | > 100 |  |
| Cc1nn(C)c2c1-c1c(F)ccc3c(c(C(=O)O)n(C)c13)CCCOc1cc(cc3ccccc13)SCc1cc(nn1C(C)C)CSC2 (single isomer, unassigned) [Example 16A, (Z)-1^6-Fluoro-6^1-isopropyl-1^1,2^1,2^3-trimethyl-1^1H,2^1H,6^1H-10-oxa-4,8-dithia-1(7,3)-indola-2(4,5),6(3,5)-dipyrazola-9(3,1)-naphthalenacyclotridecaphane-1^2-carboxylic acid] |  |  | < 10 | < 100 |
| Cc1nn(C)c2c1-c1c(F)ccc3c(c(C(=O)O)n(C)c13)CCCOc1cc(cc3ccccc13)SCc1cc(nn1CC(C)C)CSC2 (single isomer, unassigned) [Example 17A, (Z)-1^6-Fluoro-6^1-isobutyl-1^1,2^1,2^3-trimethyl-1^1H,2^1H,6^1H-10-oxa-4,8-dithia-1(7,3)-indola-2(4,5),6(3,5)-dipyrazola-9(3,1)-naphthalenacyclotridecaphane-1^2-carboxylic acid] |  |  | > 100 | > 1000 |
| Cc1nn(C)c2c1-c1c(F)ccc3c(c(C(=O)O)n(C)c13)CCCOc1cc(cc3ccccc13)SCc1cc(nn1CC1CC1)CSC2 (single isomer, unassigned) [Example 18A] |  | > 1000 | > 100 |  |
| Cc1nn(C23CC(C2)C3)c2c1-c1c(Cl)ccc3c(c(C(=O)O)n(C)c13)CCCOc1cc(cc3ccccc13)SCc1cc(nn1C)CSC2 (single isomer, unassigned) [Example 20A, (Z)-2^1-(Bicyclo[1.1.1]pentan-1-yl)-1^6-chloro-1^1,2^3,6^1-trimethyl-1^1H,2^1H,6^1H-10-oxa-4,8-dithia-1(7,3)-indola-2(4,5),6(3,5)-dipyrazola-9(3,1)-naphthalenacyclotridecaphane-1^2-carboxylic acid] |  |  | 10 to 100 | > 1000 |
| Cc1nn(C23CC(C2)C3)c2c1-c1c(Cl)ccc3c(c(C(=O)O)n(C)c13)CCCOc1cc(cc3ccccc13)SCc1cc(nn1C)CSC2 (single isomer, unassigned) [Example 20B, (Z)-2^1-(Bicyclo[1.1.1]pentan-1-yl)-1^6-chloro-1^1,2^3,6^1-trimethyl-1^1H,2^1H,6^1H-10-oxa-4,8-dithia-1(7,3)-indola-2(4,5),6(3,5)-dipyrazola-9(3,1)-naphthalenacyclotridecaphane-1^2-carboxylic acid] |  |  | < 10 | < 100 |
| Cc1nn(C23CC(C2)C3)c2c1-c1c(Cl)ccc3c(c(C(=O)O)n(C)c13)CCCOc1cc(cc3ccccc13)SCc1cc(n[nH]1)CSC2 (single isomer, unassigned) [Example 21B, (Z)-2^1-(Bicyclo[1.1.1]pentan-1-yl)-1^6-chloro-1^1,2^3-dimethyl-1^1H,2^1H,6^1H-10-oxa-4,8-dithia-1(7,3)-indola-2(4,5),6(3,5)-dipyrazola-9(3,1)-naphthalenacyclotridecaphane-1^2-carboxylic acid] |  | < 100 | < 10 |  |

Reference: patent publication US20220144854A1, “MACROCYCLIC COMPOUNDS” (ZENO MANAGEMENT, INC., priority 2019, published 2022)
